Legend:
Type in all cases: cell-based
[1] = test system: OPM2 cells; assay: Cell migration analysis by the transwell assay; conditions: 6 hrs
Procedure: Next, we evaluated the effects of C96 on MM cell growth by measuring viable cells after starvation/IGF-1 stimulation in the presence of C96. As shown in Supplemental Figure 2A, IGF-1 stimulated MM cell growth, but it was suppressed by C96. We also examined the effects of C96 on MM cell migration upon IGF-1 stimulation.
This assay was performed as described previously. Briefly, MM cells OPM2, JJN3 and LP1 were serum starved overnight and then re-suspended in 70 μL of IMDM medium/0.5% fetal calf serum with or without C96. These cells were then loaded onto polycarbonate membranes (8-μm pore size) separating 2 chambers of a transwell (Corning Costar, Cambridge, MA). Medium/0.1% FCS (500 μL) containing agonist IGF-1 was added to the lower chamber of the Transwell cluster plates. After 6 hrs, cells migrating into the lower chamber were counted using a hemacytometer.
Supplementary Figure S2: C96 inhibits MM cell proliferation and migration in the presence of IGF-1. […] Cells were then incubated for another 24 hr, cell number was analyzed using MTT staining. […] Cells were loaded onto the upper chamber of a transwell, and the lower chamber was filled with IMDM containing agonist IGF-1.After 6 hrs, cells migrating into the lower chamber were counted using a hemacytometer. […]

[2] = test system: AKT phosphorylation in LP1 and JJN3 cells; assay: IGF-1-stimulated AKT phosphorylation, immunoblotting (Figure 3A); conditions: 100 μM, 2 hrs, IGF-1 15 min
Procedure: To elucidate this specificity, we first evaluated its effects on IGF-1R because IGF-1R as a receptor tyrosine kinase activates PI3K in the presence of IGF-1. To exclude the potential effects of C96 on IGF-1 signaling, LP1 and JJN3 cells were starved overnight followed by C96 or S14161 treatment for 2 hrs, and IGF-1 stimulation for 15 min. As expected, IGF-1 triggered AKT phosphorylation but it was suppressed by both C96 and the proven PI3K inhibitor S14161 without affecting total AKT expression (Figure 3A). […] Next, we evaluated other kinases including non-receptor kinase c-Src and a PI3K parallel kinase ERK which transduces external cellular signals. Both LP1 and JJN3 cells were treated with C96 at increasing concentrations that inhibited AKT and mTOR activation (Figure 2C).
Figure 3 C96 inhibits AKT but not IGF-1R, ERK or c-Src kinase activation (A) LP1 and JJN3 cells were starved overnight, then treated with 100 (μM of C96 or S14161 for 2 hrs, followed by IGF-1 (100 ng/mL) for 15 min. After incubation, cells were harvested and the expression of p-AKT, p-IGF-1R, total AKT (T-AKT), and IGF-1R proteins were detected by immunoblotting. (B) LP1 and JJN3 were treated with C96 at indicated concentrations for 24 hrs followed by immunoblotting assay for the expression of p-Src, c-Src, p-ERK, and ERK. GAPDH was used as a loading control. […]

[3] = test system: cleavage of PARP and caspase-3 in LP1, OPM2 and JJN3 cells; assay: Apoptotic signaling, immunoblotting of PARP and caspase-3; conditions: 0-20 μM or 10 μM for 3-12 hrs, time- and concentration-dependent
Description: Because PI3K/AKT signaling is critical in modulating MM cell proliferation and survival, while interference with this pathway will lead to cell death and regression of MM tumors, we next asked whether C96 could induce MM cell apoptosis and inhibited MM cell proliferation. […] Next, we measured the induction of apoptosis by C96 in MM cell lines. Apoptotic cells are featured with inside-out expression of phosphatidylserine which is specifically identified by Annexin V, a cellular protein in the annexin group. Therefore, to measure the apoptotic level, C96-treated cells were stained with Annexin V-FITC and propidium iodide followed by flow cytometry analysis. […] For example, less apoptotic cells were induced by C96 in KMS11 cells in the Annexin V staining assay (Figure 5), the cleavage level of PARP in this cell line was also lower than that seen in other cell lines, such as OPM2 (Figure 6A). We next examined the apoptotic signaling pathway in the treatment with C96 with increasing exposure periods or concentrations. […]
Cells were treated with or without C96 for 24 hrs before being applied to lysate preparation in a lysis buffer (50 mM Tris-HCI, pH 7.4, 1% NP-40, 0.5% Na-deoxycholate, and 0.1% SDS, 150 mM NaCl, 2 mM EDTA, 2 mM Na3VO4, and 5 mM NaF). […] All immunoblotting signals were further analyzed with Quality One Quality One software (Bio-Rad, Berkeley, CA, USA).

**Q.** With `O=C1NC(=O)C(=CC=Cc2cccs2)C(=O)N1` [C96, 5-(3-(2-thienyl)-2-propen-1-ylidene)-2,4,6(1H,3H,5H)-pyrimidinetrione] as the molecule, how does the “migration through 8-micrometer transwell membrane in the presence of IGF-1” value [1] read?
**A.** Its value is “partly suppressed”.

**Q.** And the “AKT phosphorylation triggered by IGF-1” value [2]?
**A.** Its value is “suppressed”.

**Q.** And the “cleavage of PARP and caspase-3” value [3]?
**A.** Its value is “induced cleavage of PARP and caspase-3”.

Source: publication PMC4116524, “A virtual screen identified C96 as a novel inhibitor of phosphatidylinositol 3-kinase that displays potent preclinical activity against multiple myeloma in vitro and in vivo” (Oncotarget, 2014)
